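Test compounds were applied to cells in 96-well plates for 48 hours at 5 doses. Abbreviation: GI50, concentration required for 50% inhibition of growth.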 Active and inactive are the calls of the source. Rule as the data show it: active = GI50 up to about 1.1 µM and inactive = higher.
Key:
Assay in all cases: NCI anticancer screen, dose series, 48 h
MCF7 = system: MCF7
NCI-H522 = system: NCI-H522
MOLT-4 = system: MOLT-4
HT-29 = system: HT-29
SK-MEL-2 = system: SK-MEL-2
ACHN = system: ACHN
PC-3 = system: PC-3
OVCAR-4 = system: OVCAR-4
M14 = system: M14
CCRF-CEM = system: CCRF-CEM
KM12 = system: KM12
K562 = system: K562
RXF 393 = system: RXF 393
KM-20L2 = system: KM-20L2
NCI-H226 = system: NCI-H226
T47D = system: T47D
HCT-15 = system: HCT-15
MDA-MB-231 = system: MDA-MB-231
OVCAR-8 = system: OVCAR-8
DLD-1 = system: DLD-1
SN12C = system: SN12C
DMS-114 = system: DMS-114
MDA-N = system: MDA-N
NCI-H460 = system: NCI-H460
DMS-273 = system: DMS-273
TK-10 = system: TK-10
786-0 = system: 786-0
SK-OV-3 = system: SK-OV-3
OVCAR-3 = system: OVCAR-3
SR = system: SR
HCT-116 = system: HCT-116
CAKI-1 = system: CAKI-1
DU-145 = system: DU-145
LOX IMVI = system: LOX IMVI
M19-MEL = system: M19-MEL
HL-60 = system: HL-60
UO-31 = system: UO-31
U-251 = system: U-251
RPMI-8226 = system: RPMI-8226
SNB-19 = system: SNB-19
SF-539 = system: SF-539
HOP-92 = system: HOP-92
SF-268 = system: SF-268
A549 = system: A549
SF-295 = system: SF-295
NCI-H23 = system: NCI-H23
OVCAR-5 = system: OVCAR-5
XF498 = system: XF498
Malme-3M = system: Malme-3M
SNB-75 = system: SNB-75
UACC-62 = system: UACC-62
SW-620 = system: SW-620
NCI/ADR-RES = system: NCI/ADR-RES
IGROV-1 = system: IGROV-1
SK-MEL-5 = system: SK-MEL-5
COLO 205 = system: COLO 205
LXFL 529 = system: LXFL 529
A498 = system: A498
RXF 631 = system: RXF 631
SK-MEL-28 = system: SK-MEL-28
HOP-62 = system: HOP-62
EKVX = system: EKVX
Hs-578T = system: Hs-578T
UACC-257 = system: UACC-257
HCC 2998 = system: HCC 2998
MDA-MB-435 = system: MDA-MB-435
SNB-78 = system: SNB-78
BT-549 = system: BT-549

With CC(=O)NNc1nc(C)c(C(=O)NNC(=O)C(=O)Nc2nc3ccc([N+](=O)[O-])cc3s2)s1 as the compound, how does the GI50 (MCF7) read?
Its GI50 is 31 µM (inactive).

What about the GI50 (NCI-H522) of the same compound?
Its GI50 is 18.7 µM (inactive).

What about the GI50 (MOLT-4) of the same compound?
Its GI50 is 28.8 µM (inactive).

What about the GI50 (HT-29) of the same compound?
Its GI50 is 54.7 µM (inactive).

And the GI50 (SK-MEL-2)?
The GI50 was 56.9 µM (inactive).

And the GI50 (ACHN)?
The GI50 was 50.4 µM (inactive).

What about the GI50 (PC-3) of the same compound?
Its GI50 is 26.9 µM (inactive).

What about the GI50 (OVCAR-4) of the same compound?
The GI50 was 46.7 µM (inactive).

And the GI50 (M14)?
The GI50 was > 67.8 µM (inactive).

What about the GI50 (CCRF-CEM) of the same compound?
Its GI50 is 22 µM (inactive).

And the GI50 (KM12)?
Its GI50 is 33.9 µM (inactive).

And the GI50 (K562)?
Its GI50 is 25 µM (inactive).

What about the GI50 (RXF 393) of the same compound?
The GI50 was > 59.8 µM (inactive).

And the GI50 (KM-20L2)?
The GI50 was > 100 µM (inactive).

What about the GI50 (NCI-H226) of the same compound?
The GI50 was 80 µM (inactive).

What about the GI50 (T47D) of the same compound?
Its GI50 is 22.6 µM (inactive).

What about the GI50 (HCT-15) of the same compound?
The GI50 was greater than 68.1 µM.

And the GI50 (MDA-MB-231)?
The GI50 was 18.7 µM (inactive).

What about the GI50 (OVCAR-8) of the same compound?
Its GI50 is 52.7 µM (inactive).

What about the GI50 (DLD-1) of the same compound?
The GI50 was 46.1 µM (inactive).

And the GI50 (SN12C)?
Its GI50 is 68.2 µM (inactive).

And the GI50 (DMS-114)?
Its GI50 is 24.4 µM (inactive).

And the GI50 (MDA-N)?
The GI50 was 45.9 µM (inactive).

What about the GI50 (NCI-H460) of the same compound?
Its GI50 is 49 µM (inactive).

What about the GI50 (DMS-273) of the same compound?
The GI50 was 62.4 µM (inactive).

And the GI50 (TK-10)?
The GI50 was 50.4 µM (inactive).

And the GI50 (786-0)?
Its GI50 is 61.5 µM (inactive).

And the GI50 (SK-OV-3)?
The GI50 was 64.4 µM (inactive).

What about the GI50 (OVCAR-3) of the same compound?
The GI50 was 15.3 µM (inactive).

And the GI50 (SR)?
Its GI50 is 26.4 µM (inactive).

What about the GI50 (HCT-116) of the same compound?
The GI50 was > 62.5 µM (inactive).

And the GI50 (CAKI-1)?
The GI50 was 30.5 µM (inactive).

What about the GI50 (DU-145) of the same compound?
The GI50 was 70.1 µM (inactive).

What about the GI50 (LOX IMVI) of the same compound?
The GI50 was 54.1 µM (inactive).

And the GI50 (M19-MEL)?
The GI50 was 45.5 µM (inactive).

And the GI50 (HL-60)?
Its GI50 is 36.8 µM (inactive).

And the GI50 (UO-31)?
Its GI50 is 33.2 µM (inactive).

And the GI50 (U-251)?
Its GI50 is 47.5 µM (inactive).

What about the GI50 (RPMI-8226) of the same compound?
Its GI50 is 30.5 µM (inactive).

What about the GI50 (SNB-19) of the same compound?
The GI50 was 81.7 µM (inactive).

What about the GI50 (SF-539) of the same compound?
The GI50 was 44.7 µM (inactive).

What about the GI50 (HOP-92) of the same compound?
Its GI50 is 28.8 µM (inactive).

And the GI50 (SF-268)?
Its GI50 is 49.1 µM (inactive).

And the GI50 (A549)?
Its GI50 is 67.1 µM (inactive).

And the GI50 (SF-295)?
Its GI50 is 60.8 µM (inactive).

And the GI50 (NCI-H23)?
Its GI50 is 44.1 µM (inactive).

And the GI50 (OVCAR-5)?
Its GI50 is 82.8 µM (inactive).

What about the GI50 (XF498) of the same compound?
The GI50 was 25 µM (inactive).

And the GI50 (Malme-3M)?
Its GI50 is 35 µM (inactive).

What about the GI50 (SNB-75) of the same compound?
Its GI50 is 29.4 µM (inactive).

What about the GI50 (UACC-62) of the same compound?
Its GI50 is 51.6 µM (inactive).

What about the GI50 (SW-620) of the same compound?
The GI50 was > 65.9 µM (inactive).

And the GI50 (NCI/ADR-RES)?
Its GI50 is 53.5 µM (inactive).

What about the GI50 (IGROV-1) of the same compound?
The GI50 was 36.9 µM (inactive).

And the GI50 (SK-MEL-5)?
The GI50 was 42.6 µM (inactive).

And the GI50 (COLO 205)?
Its GI50 is > 81.1 µM (inactive).

What about the GI50 (LXFL 529) of the same compound?
The GI50 was 49.9 µM (inactive).

And the GI50 (A498)?
The GI50 was 33.6 µM (inactive).

What about the GI50 (RXF 631) of the same compound?
Its GI50 is 41.6 µM (inactive).

What about the GI50 (SK-MEL-28) of the same compound?
The GI50 was 65.2 µM (inactive).

And the GI50 (HOP-62)?
Its GI50 is > 82.6 µM (inactive).

What about the GI50 (EKVX) of the same compound?
Its GI50 is 30.7 µM (inactive).

What about the GI50 (Hs-578T) of the same compound?
Its GI50 is 51.6 µM (inactive).

And the GI50 (UACC-257)?
The GI50 was 77.8 µM (inactive).

What about the GI50 (HCC 2998) of the same compound?
The GI50 was 42.1 µM (inactive).

What about the GI50 (MDA-MB-435) of the same compound?
The GI50 was 60.4 µM (inactive).

What about the GI50 (SNB-78) of the same compound?
The GI50 was 69.5 µM (inactive).

And the GI50 (BT-549)?
The GI50 was 45.8 µM (inactive).

— ChEMBL document CHEMBL1201862, “PubChem BioAssay data set” (2004)
